Values of other authors, collected in patent publication US8728493B2, “Polymer based compositions and conjugates of non-steroidal anti-inflammatory drugs” (Nektar Therapeutics, priority 2005, dated 2014).

Settings: non-conjugated drug; conditions not stated

half-life of non-conjugated ketorolac: approximately 2 hours
Structure (SMILES): O=C(c1ccccc1)c1ccc2n1CCC2C(=O)O (stereo not shown) [non-conjugated ketorolac, ketorolac]
